Assay results: patent publication US9617285B2, “1-hydroxy-benzooxaboroles as antiparasitic agents” (priority 2013, dated 2017)

Key:
Type in all cases: in vivo
[1] = system: Ancylostoma caninum; experiment: Experimental hookworm infections in dogs, A. caninum; conditions: oral, point dose of no greater than 25 mg/kg bodyweight, by Day 3
Description: (§1) Activity of Example 1 Compound Against Experimental Hookworm Infections in Dogs
(§2) The antihelminthic activity of the Example 1 compound, when administered orally at a point dose of no greater than 25 mg/kg bodyweight, is evaluated against experimental infections of the hookworms Ancylostoma caninum and Uncinaria stenocephala in dogs. Four (4) beagle dogs in good health are inoculated with 3rd-stage infective larvae of each hookworm species, per W.A.A.V.P. Guidelines (Jacobs, D. E., A. Arakawa, C. H. Courtney, et al., 1994. Vet. Parasitol. 52: 179-202) so as to provide sufficient time for development of full patency. Fecal egg counts are conducted twice before treatment (Day-2 and Day-1). On Day 0, test article (technical active dissolved in 55-65% polyethylene glycol-300, 25-35% propylene glycol and 10-20% water) is administered to all four dogs via esophageal feeding tube. Fecal egg counts are conducted post-treatment on Days 3, 5 and 7. The average of two pre-treatment fecal egg counts is used for comparison to post-treatment egg counts for the purposes of calculating efficacy (geometric mean % reduction in fecal egg count) against each hookworm species.

[2] = Tolerability of treatment in hookworm-infected dogs; conditions: oral, point dose of no greater than 25 mg/kg bodyweight
Description: as §2

[3] = system: Uncinaria stenocephala; experiment: Experimental hookworm infections in dogs, U. stenocephala; conditions: oral, point dose of no greater than 25 mg/kg bodyweight, by Day 5
Description: as §1, §2

C[C@](C#N)(COc1ccc2c(c1Cl)B(O)OC2)NC(=O)c1ccc(OC(F)(F)F)cc1 (single isomer, unassigned) [Example 1]
reduction in A. caninum fecal egg counts [1]: > 50% | tolerability of treatment [2]: well tolerated | reduction in U. stenocephala fecal egg count [3]: > 50%
